PubChem BioAssay AID248 (DTP/NCI, 2004)
“And” between values parts separate entries of the source, which are not always exact repeats. Identical values can stand only once. Toxic doses and inconclusive results are not listed.

Test system: L1210 leukemia ip in BDF1 mice, survival T/C
Experiment: NCI In Vivo Anticancer Drug Screen. Data for tumor model L1210 Leukemia (intraperitoneal) in B6D2F1 (BDF1) mice
Details: endpoint: mean survival time, higher = longer survival
Outline: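 Transplanted-tumor mice were given test agent; controls received vehicle only. Survival readings from the two groups were divided (treated over control).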

[1] = dose: 100.0 mg/kg/injection, schedule: Q01DX001 (ip), vehicle: other
[2] = dose: 100.0 mg/kg/injection, schedule: Q01DX009 (ip), vehicle: saline with Tween-80
[3] = dose: 200.0 mg/kg/injection, schedule: Q01DX001 (ip), vehicle: other
[4] = dose: 200.0 mg/kg/injection, schedule: Q01DX009 (ip), vehicle: saline with Tween-80
[5] = dose: 400.0 mg/kg/injection, schedule: Q01DX001 (ip), vehicle: other
[6] = dose: 400.0 mg/kg/injection, schedule: Q01DX009 (ip), vehicle: saline with Tween-80
[7] = dose: 100.0 mg/kg/injection, schedule: Q04DX003 (ip), vehicle: saline with Tween-80
[8] = dose: 200.0 mg/kg/injection, schedule: Q04DX003 (ip), vehicle: saline with Tween-80
[9] = dose: 100.0 mg/kg/injection, schedule: Q01DX001 (ip), vehicle: Klucel (hydroxypropylcellulose) (HPC)
[10] = dose: 100.0 mg/kg/injection, schedule: Q01DX009 (ip), vehicle: Klucel (hydroxypropylcellulose) (HPC)
[11] = dose: 200.0 mg/kg/injection, schedule: Q01DX009 (ip), vehicle: Klucel (hydroxypropylcellulose) (HPC)
[12] = dose: 400.0 mg/kg/injection, schedule: Q01DX009 (ip), vehicle: Klucel (hydroxypropylcellulose) (HPC)
[13] = dose: 400.0 mg/kg/injection, schedule: Q04DX003 (ip), vehicle: saline with Tween-80
[14] = dose: 6.25 mg/kg/injection, schedule: Q01DX009 (ip), vehicle: Klucel (hydroxypropylcellulose) (HPC)
[15] = dose: 12.5 mg/kg/injection, schedule: Q01DX009 (ip), vehicle: Klucel (hydroxypropylcellulose) (HPC)
[16] = dose: 25.0 mg/kg/injection, schedule: Q01DX009 (ip), vehicle: Klucel (hydroxypropylcellulose) (HPC)
[17] = dose: 100.0 mg/kg/injection, schedule: Q04DX003 (ip), vehicle: Klucel (hydroxypropylcellulose) (HPC)
[18] = dose: 200.0 mg/kg/injection, schedule: Q04DX003 (ip), vehicle: Klucel (hydroxypropylcellulose) (HPC)
[19] = dose: 400.0 mg/kg/injection, schedule: Q04DX003 (ip), vehicle: Klucel (hydroxypropylcellulose) (HPC)
[20] = dose: 100.0 mg/kg/injection, schedule: Q04DX003 (ip), vehicle: saline
[21] = dose: 200.0 mg/kg/injection, schedule: Q04DX003 (ip), vehicle: saline
[22] = dose: 100.0 mg/kg/injection, schedule: Q04DX002 (ip), vehicle: Klucel (hydroxypropylcellulose) (HPC)
[23] = dose: 200.0 mg/kg/injection, schedule: Q04DX002 (ip), vehicle: Klucel (hydroxypropylcellulose) (HPC)
[24] = dose: 400.0 mg/kg/injection, schedule: Q04DX002 (ip), vehicle: Klucel (hydroxypropylcellulose) (HPC)

CC(C)(CO)N=Cc1ccc(O)cc1O
T/C (dose: 100.0 mg/kg/injection, schedule: Q01DX001 (ip), vehicle: carboxymethylcellulose (CMC)): 96 % of control | T/C (dose: 200.0 mg/kg/injection, schedule: Q01DX001 (ip), vehicle: carboxymethylcellulose (CMC)): 93 % of control | T/C (dose: 400.0 mg/kg/injection, schedule: Q01DX001 (ip), vehicle: carboxymethylcellulose (CMC)): 91 % of control

CNS(=O)(=O)c1ccc(NC(=O)C(Cl)Cl)cc1
T/C [1]: 101 % of control | T/C [2]: 95 % of control | T/C [3]: 103 % of control | T/C [4]: 106 % of control | T/C [5]: 101 % of control | T/C [6]: 102 % of control

Cc1cc(C)c(S(=O)(=O)NN)c(C)c1
T/C [7]: 94 % of control | T/C [8]: 90 % of control

ClC12CCC(CC1)C2
T/C (dose: 100.0 mg/kg/injection, schedule: Q04DX002 (ip), vehicle: saline): 96 % of control | T/C (dose: 200.0 mg/kg/injection, schedule: Q04DX002 (ip), vehicle: saline): 104 % of control | T/C (dose: 400.0 mg/kg/injection, schedule: Q04DX002 (ip), vehicle: saline): 93 % of control

C=C(COc1ccc(Cl)cc1)COc1ccc(Cl)cc1
T/C (dose: 12.5 mg/kg/injection, schedule: Q04DX002 (ip), vehicle: other): 115 % of control and 117 % of control | T/C (dose: 50.0 mg/kg/injection, schedule: Q04DX003 (ip), vehicle: other): 98 % of control and 107 % of control | T/C [1]: 95 % of control and 99 % of control | T/C (dose: 100.0 mg/kg/injection, schedule: Q04DX003 (ip), vehicle: other): 96 % of control and 113 % of control | T/C [3]: 96 % of control and 98 % of control | T/C (dose: 200.0 mg/kg/injection, schedule: Q04DX003 (ip), vehicle: other): 93 % of control and 106 % of control | T/C [5]: 91 % of control | T/C (dose: 400.0 mg/kg/injection, schedule: Q04DX003 (ip), vehicle: other): 95 % of control and 113 % of control

O=C(c1cccc([N+](=O)[O-])c1)C1CC1
T/C (dose: 25.0 mg/kg/injection, schedule: Q01DX001 (ip), vehicle: Klucel (hydroxypropylcellulose) (HPC)): 97 % of control | T/C (dose: 50.0 mg/kg/injection, schedule: Q01DX001 (ip), vehicle: Klucel (hydroxypropylcellulose) (HPC)): 101 % of control | T/C [9]: 95 % of control

CCCC(Cc1cccs1)C(=O)O (stereo unspecified)
T/C [1]: 101 % of control | T/C [3]: 97 % of control | T/C [5]: 97 % of control

CCCN(CCC)c1ccc(SC#N)cc1
T/C (dose: 100.0 mg/kg/injection, schedule: Q01DX001 (ip), vehicle: saline): 98 % of control | T/C (dose: 200.0 mg/kg/injection, schedule: Q01DX001 (ip), vehicle: saline): 95 % of control

CNC(=O)Nc1nnc(C)s1
T/C [10]: 98 % of control | T/C [11]: 106 % of control | T/C [12]: 114 % of control

O=C(O)C1C2C=CC(C2)C1C(F)(F)C(F)(F)C(F)(F)F (stereo unspecified)
T/C [9]: 102 % of control | T/C (dose: 200.0 mg/kg/injection, schedule: Q01DX001 (ip), vehicle: Klucel (hydroxypropylcellulose) (HPC)): 102 % of control | T/C (dose: 400.0 mg/kg/injection, schedule: Q01DX001 (ip), vehicle: Klucel (hydroxypropylcellulose) (HPC)): 93 % of control

O=C(O)C12CC3CC1C2C3
T/C [7]: 103 % of control | T/C [8]: 91 % of control | T/C [13]: 86 % of control

N#Cc1ccccc1N=NNc1ccccc1C#N
T/C [14]: 112 % of control | T/C [15]: 112 % of control | T/C [16]: 115 % of control | T/C (dose: 75.0 mg/kg/injection, schedule: Q01DX001 (ip), vehicle: other): 96 % of control | T/C (dose: 150.0 mg/kg/injection, schedule: Q01DX001 (ip), vehicle: other): 92 % of control

F[Si](C1CCCCC1)(C1CCCCC1)C1CCCCC1
T/C [2]: 92 % of control | T/C [4]: 91 % of control | T/C [6]: 89 % of control

CC(C)N1C(=O)OC2(CCN(CCCSc3ccc(F)cc3)CC2)C1=O
T/C [17]: 103 % of control | T/C [18]: 103 % of control | T/C [19]: 103 % of control

CN(N=O)C(=O)NNC(=O)N(C)N=O
T/C (dose: 6.25 mg/kg/injection, schedule: Q01DX Z (ip), vehicle: carboxymethylcellulose (CMC)): 103 % of control | T/C (dose: 20.0 mg/kg/injection, schedule: Q01DX Z (ip), vehicle: carboxymethylcellulose (CMC)): 152 % of control | T/C (dose: 50.0 mg/kg/injection, schedule: Q01DX Z (ip), vehicle: carboxymethylcellulose (CMC)): 89 % of control

Cc1ccccc1C(Cc1ccc(N2C(N)=NC(N)=NC2(C)C)cc1)C(=O)Nc1ccc(S(=O)(=O)F)cc1 (stereo unspecified)
T/C [17]: 98 % of control | T/C [18]: 96 % of control | T/C [19]: 88 % of control

O=C1OCC/C1=C/OS(=O)(=O)C(F)(F)F
T/C (dose: 12.5 mg/kg/injection, schedule: Q01DX009 (ip), vehicle: water): 105 % of control | T/C (dose: 25.0 mg/kg/injection, schedule: Q01DX009 (ip), vehicle: water): 106 % of control | T/C (dose: 50.0 mg/kg/injection, schedule: Q01DX009 (ip), vehicle: water): 105 % of control | T/C (dose: 100.0 mg/kg/injection, schedule: Q01DX009 (ip), vehicle: water): 104 % of control

Nc1ccc(C(=O)N/N=C/c2ccccc2[N+](=O)[O-])cc1
T/C (dose: 12.5 mg/kg/injection, schedule: Q01DX009 (ip), vehicle: other): 91 % of control | T/C (dose: 25.0 mg/kg/injection, schedule: Q01DX009 (ip), vehicle: other): 93 % of control

CCCCCCCCCC(=O)N1CCOCC1
T/C (dose: 25.0 mg/kg/injection, schedule: Q01DX009 (ip), vehicle: saline): 98 % of control | T/C (dose: 25.0 mg/kg/injection, schedule: Q04DX003 (ip), vehicle: saline): 97 % of control | T/C (dose: 50.0 mg/kg/injection, schedule: Q01DX009 (ip), vehicle: saline): 113 % of control | T/C (dose: 50.0 mg/kg/injection, schedule: Q04DX003 (ip), vehicle: saline): 101 % of control | T/C [20]: 94 % of control and 89 % of control

COC1/C=C/OC2(C)Oc3c(C)c(O)c4c(O)c(c(/C=N/N5CCN(Cc6ccccc6)CC5)c(O)c4c3C2=O)NC(=O)C(C)=C/C=C/C(C)C(O)C(C)C(O)C(C)C(OC(C)=O)C1C (stereo unspecified)
T/C (dose: 3.13 mg/kg/injection, schedule: Q01DX009 (ip), vehicle: Klucel (hydroxypropylcellulose) (HPC)): 91 % of control | T/C [14]: 100 % of control | T/C [15]: 91 % of control | T/C [16]: 97 % of control | T/C (dose: 50.0 mg/kg/injection, schedule: Q01DX009 (ip), vehicle: Klucel (hydroxypropylcellulose) (HPC)): 95 % of control and 110 % of control

Oc1c(Cl)cc(C(c2cc(Cl)c(O)c(Cl)c2)C(c2cc(Cl)c(O)c(Cl)c2)c2cc(Cl)c(O)c(Cl)c2)cc1Cl
T/C [20]: 101 % of control | T/C [21]: 96 % of control | T/C (dose: 400.0 mg/kg/injection, schedule: Q04DX003 (ip), vehicle: saline): 103 % of control

CCOC(=O)Nc1nc2nc[nH]c2c(NC(c2ccccc2)c2ccccc2)c1Br
T/C [22]: 91 % of control | T/C [23]: 91 % of control | T/C [24]: 86 % of control

COc1cc(CCCc2ccc(O)c(=O)cc2)cc(OC)c1OC
T/C [7]: 111 % of control | T/C [8]: 94 % of control | T/C [13]: 94 % of control

CC12CCC3c4ccc(O)cc4CCC3C1CCC2O (stereo unspecified)
T/C (dose: 50.0 mg/kg/injection, schedule: Q01DX001 (sc), vehicle: steriod suspending solution): 105 % of control and 111 % of control | T/C (dose: 100.0 mg/kg/injection, schedule: Q01DX001 (sc), vehicle: steriod suspending solution): 98 % of control and 115 % of control | T/C (dose: 200.0 mg/kg/injection, schedule: Q01DX001 (sc), vehicle: steriod suspending solution): 98 % of control and 103 % of control | T/C (dose: 400.0 mg/kg/injection, schedule: Q01DX001 (sc), vehicle: steriod suspending solution): 101 % of control and 109 % of control

c1ccc2c(c1)[nH]c1nc3ccncc3nc12
T/C [20]: 103 % of control | T/C [21]: 94 % of control

Cc1cc(OCCO)ccc1Cl
T/C [22]: 108 % of control | T/C [23]: 108 % of control | T/C [24]: 108 % of control

O=C1C=C(C(=O)O)C(c2ccccc2)CC1 (stereo unspecified)
T/C [10]: 88 % of control | T/C [17]: 100 % of control | T/C [11]: 95 % of control | T/C [18]: 95 % of control | T/C [12]: 98 % of control | T/C [19]: 98 % of control
